Data taken from US20260345619A1 (Principia Biopharma Inc., priority 2023, published 2026).
pIC50: −log10 of the molar value.

Assays:
[1] = Time to LOAC post-randomization (Cox regression, Kaplan-Meier); assay type: in vivo, human
From the text: Time to LOAC post-randomization was to be analyzed using a Cox regression model with treatment (Cox 1972), baseline IgE strata, and region (pooled country) as covariates. The Kaplan-Meier (KM) method was to be used to estimate the probabilities of the event at specific time points for each treatment group (Kaplan and Meier 1958). Nominal p-value from log-rank test stratified by baseline IgE strata and region was also to be provided.

[2] = Asthma Daytime Symptom Diary (ADSD) score; assay type: in vivo, human; conditions: for LS mean difference versus placebo, ADSD symptom score: Week 12
From the text: (§1) ADSD and ANSD are PRO measures developed by the PRO Consortium′ Asthma Working Group. Both instruments have been designed to measure asthma symptoms in adult and adolescent (12 years of age and older) patients diagnosed with mild to severe asthma. ADSD and ANSD assess asthma severity based on patient self-report of asthma core symptoms.
(§2) Other efficacy endpoints included: • Change from baseline in pre- and post-bronchodilator FEV1 and other lung function measurement (peak expiratory flow (PEF), forced vital capacity (FVC), forced expiratory flow (FEF) 25-75%) at each spirometry endpoint. • Asthma Control Questionnaire-5 (ACQ-5) score change from baseline at EOT and at each assessment time point. • Asthma Quality of Life Questionnaire with Standardized Activities (AQLQ(S)) Self-Administered score change from baseline at EOT and at each assessment time point. • Change from baseline at EOT and change from baseline at each week for asthma symptom scores in the morning and evening (ADSD and ANSD). Questionnaire was to be administered daily and score averaged weekly for analysis. • Change from baseline at EOT and change from baseline at each week in number of inhalations/day of albuterol or levalbuterol for symptom relief.
(§3) The ADSD and ANSD are PRO measures developed by the PRO Consortium′ Asthma Working Group. Both instruments have been designed to measure asthma symptoms in adult and adolescent (12 years of age and older) patients diagnosed with mild to severe asthma. ADSD and ANSD assess asthma severity based on patient self-report of asthma core symptoms, i.e., difficulty of breathing; wheezing; shortness of breath; chest tightness; chest pain; and cough. Patients were asked to complete the ADSD every night before they went to bed, thinking about their asthma symptoms on that day, from when they got up this morning until then; the ANSD when getting up, thinking about their asthma symptoms from the previous night from when they went to bed until then.
(§4) Both the ADSD and ANSD are composed of 6 items rated using an 11-point NRS that ranges from 0=None to 10=As bad as you can imagine (Gater et al. 2016). The participants were to record their daytime and nighttime asthma symptoms in an electronic diary, once in the evening and once in the morning, respectively. The participants were to complete the ADSD and the ANSD.

[3] = Asthma Nighttime Symptom Diary (ANSD) score; assay type: in vivo, human; conditions: for LS mean difference versus placebo, ANSD symptom score: Week 12
From the text: as §1, §2, §3, §4

[4] = target: tyrosine protein kinase TEC; conditions: cited from earlier work
BTK [5] = conditions: preclinical assays; cited from earlier work
other TEC family members = conditions: preclinical assays; cited from earlier work
BTK [6] = conditions: over 24 h; cited from earlier work
[7] = 400 mg BID cohort, N = 32, mITT
[8] = 400 mg TID cohort, N = 64, mITT
[9] = both cohorts, Week 12, all components

## CC(C)(C=C(C#N)C(=O)N1CCC[C@@H](n2nc(-c3ccc(Oc4ccccc4)cc3F)c3c(N)ncnc32)C1)N1CCN(C2COC2)CC1 (mixture of isomers) [rilzabrutinib, (R)-2-[3-[4-amino-3-(2-fluoro-4-phenoxy-phenyl)pyrazolo[3,4-d]pyrimidin-1-yl]piperidine-1-carbonyl]-4-methyl-4-[4-(oxetan-3-yl)piperazin-1-yl]pent-2-enenitrile]
[1]; [7]
  Number of participants censored: 20
  Number of participants with LOAC (time-to-LOAC analysis): 12
  Percentage of participants censored: (62.5)
  Percentage of participants with LOAC (time-to-LOAC analysis): (37.5)
[1]; 400 mg BID cohort, mITT, 95% CI (0.059, 0.309)
  Probability of LOAC at Week 4: 0.161
[1]; 400 mg BID cohort, mITT, 95% CI (0.125, 0.429)
  Probability of LOAC at Week 9: 0.265
[1]; 400 mg BID cohort, mITT, 95% CI (0.243, 0.607)
  Probability of LOAC at Week 12: 0.432
[1]; 400 mg BID cohort, mITT, 95% CI (0.352, 1.595)
  HR vs. placebo, time to LOAC: 0.750
[1]; 400 mg BID cohort, mITT, 95% CI (19.0, 84.0)
  Q1 of time to LOAC: 55.0 days
[1]; [8]
  Number of participants censored: 52
  Number of participants with LOAC (time-to-LOAC analysis): 12
  Percentage of participants censored: (81.3)
  Percentage of participants with LOAC (time-to-LOAC analysis): (18.8)
[1]; 400 mg TID cohort, mITT, 95% CI (0.001, 0.080)
  Probability of LOAC at Week 4: 0.017
[1]; 400 mg TID cohort, mITT, 95% CI (0.077, 0.261)
  Probability of LOAC at Week 9: 0.156
[1]; 400 mg TID cohort, mITT, 95% CI (0.117, 0.325)
  Probability of LOAC at Week 12: 0.211
[1]; 400 mg TID cohort, mITT, 95% CI (0.327, 1.408)
  HR vs. placebo, time to LOAC: 0.679
[2]; 400 mg BID
  LS mean ADSD change from baseline at Week 12: −0.27
[2]; 400 mg BID, 95% CI −1.03, 0.26, nominal p=0.2377
  LS mean difference versus placebo, ADSD symptom score: −0.39
[2]; 400 mg TID
  LS mean ADSD change from baseline at Week 12: −0.43
[2]; 400 mg TID, 95% CI −1.15, 0.14, nominal p=0.1276
  LS mean difference versus placebo, ADSD symptom score: −0.50
[2]; [9]
  ADSD symptom score (in words): improvement in ADSD and ANSD symptom score
[3]; 400 mg BID
  LS mean ANSD change from baseline at Week 12: −0.35
[3]; 400 mg BID, 95% CI −1.33, −0.03, nominal p=0.0390
  LS mean difference versus placebo, ANSD symptom score: −0.68
[3]; 400 mg TID
  LS mean ANSD change from baseline at Week 12: −0.48
[3]; 400 mg TID, 95% CI −1.13, 0.06, nominal p=0.0758
  LS mean difference versus placebo, ANSD symptom score: −0.54
[3]; [9]
  ANSD symptom score (in words): improvement in ADSD and ANSD symptom score
[4]
  pIC50: 9.10
BTK [5]
  binding to BTK over time: persisted
Other TEC family members
  binding to other TEC family members over time: decayed rapidly over time
BTK [6]
  sustained target occupancy: high sustained occupancy over 24 h
